The text below walks through data of ChEMBL document CHEMBL4339250 (J Nat Prod, 2019).

By EC50 is commonly meant the concentration giving half of the maximal effect. By IC50 is commonly meant the point on the concentration scale where inhibition reaches its midpoint.

SMILES strings stand for the structures. Active and inactive are the calls of the source. The calls are words filed in the database; no cut-off is given here.

Series [1] concerns the target T1, Peroxisome proliferator-activated receptor alpha (Homo sapiens) (UniProt Q07869).
T1 sequence (whole entry): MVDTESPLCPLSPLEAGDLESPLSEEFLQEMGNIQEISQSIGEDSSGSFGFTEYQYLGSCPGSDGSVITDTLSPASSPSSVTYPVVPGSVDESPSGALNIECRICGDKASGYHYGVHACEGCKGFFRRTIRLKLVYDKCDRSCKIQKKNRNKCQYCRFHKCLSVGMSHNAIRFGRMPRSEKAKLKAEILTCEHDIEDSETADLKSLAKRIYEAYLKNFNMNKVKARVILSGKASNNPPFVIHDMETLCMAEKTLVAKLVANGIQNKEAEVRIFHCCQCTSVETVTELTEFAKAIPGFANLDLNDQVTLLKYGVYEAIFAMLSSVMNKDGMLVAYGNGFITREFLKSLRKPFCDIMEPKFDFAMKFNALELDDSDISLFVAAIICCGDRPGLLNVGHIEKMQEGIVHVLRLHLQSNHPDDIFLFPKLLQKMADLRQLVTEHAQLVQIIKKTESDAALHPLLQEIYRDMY
Put plainly: Agonist activity at human PPARalpha expressed in African green monkey COS7 cells assessed as increase in receptor transcriptional activity at 10 uM by luciferase reporter gene assay relative to WY-14643. The class given is cell-based. Background: Reporter assays use an easily measured gene product as a stand-in for the process of interest.

Series [2] deals with T2, Peroxisome proliferator-activated receptor alpha (Homo sapiens, UniProt Q07869).
T2 sequence (Q07869 whole entry): T1 sequence (whole entry)
Nature of the series: Agonist activity at human PPARalpha expressed in African green monkey COS7 cells assessed as increase in receptor transcriptional activity by luciferase reporter gene assay relative to WY-14643. Type of series: cell-based.

The target of series [3] is T3, Peroxisome proliferator-activated receptor gamma (Homo sapiens, UniProt P37231).
T3 sequence (P37231 whole entry): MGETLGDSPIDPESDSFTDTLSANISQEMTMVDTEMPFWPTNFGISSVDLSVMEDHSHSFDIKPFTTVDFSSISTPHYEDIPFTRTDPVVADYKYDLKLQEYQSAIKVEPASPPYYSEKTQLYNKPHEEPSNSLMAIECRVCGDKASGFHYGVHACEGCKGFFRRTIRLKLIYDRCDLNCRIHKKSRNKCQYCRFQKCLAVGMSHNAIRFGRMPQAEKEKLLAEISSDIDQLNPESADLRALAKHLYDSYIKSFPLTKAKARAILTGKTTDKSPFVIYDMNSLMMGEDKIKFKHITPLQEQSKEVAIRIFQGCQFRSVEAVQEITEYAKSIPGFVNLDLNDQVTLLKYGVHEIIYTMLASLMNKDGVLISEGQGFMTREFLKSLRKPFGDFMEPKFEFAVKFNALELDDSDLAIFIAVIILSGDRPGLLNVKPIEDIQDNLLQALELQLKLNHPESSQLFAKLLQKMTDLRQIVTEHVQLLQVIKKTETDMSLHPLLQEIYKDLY
Put plainly: Agonist activity at human PPARgamma expressed in African green monkey COS7 cells assessed as increase in receptor transcriptional activity by luciferase reporter gene assay relative to rosiglitazone. The class given is cell-based.

Series [4] concerns Neutrophil. Nature of the series: Cytotoxicity against human neutrophils assessed as reduction in cell viability at 30 uM incubated for 24 hrs by MTT assay. The class given is cell-based. On the technique in general: Tetrazolium dyes change colour on reduction, which living cells bring about.
Series [5] concerns HUVEC. Nature of the series: Cytotoxicity against HUVEC assessed as reduction in cell viability at 30 uM incubated for 24 hrs by MTT assay. The class given is cell-based. The note with it: human.
Series [6] can be described thus: Cytotoxicity against human neutrophils assessed as cell viability at 30 uM incubated for 24 hrs by MTT assay. The class given is cell-based, Neutrophil. The note with it: read-out: Activity.
The nature of series [7]: Cytotoxicity against HUVEC assessed as cell viability at 30 uM incubated for 24 hrs by MTT assay. Type of series: cell-based. The note with it: human, HUVEC cells; read-out: Activity.
The subject of series [8] is Neutrophil. Nature of the series: Induction of apoptosis in human neutrophils at 30 uM incubated for 24 hrs by annexin V-FITC and propidium iodide staining based flow cytometry. The class given is cell-based. A general note: In flow cytometry, cells or beads pass a laser one at a time.
Series [9] has as its system HUVEC. Nature of the series: Induction of apoptosis in HUVEC at 30 uM incubated for 24 hrs by annexin V-FITC and propidium iodide staining based flow cytometry. The class given is cell-based. The note with it: human.
The subject of series [10] is HUVEC. Put plainly: Anti-inflammatory activity in HUVEC assessed as reduction in TNFalpha-stimulated neutrophil-HUVEC interactions by measuring decrease in neutrophil adhesion to endothelial cells at 1 uM pretreated for 20 hrs before TNFalpha stimulation for 24 hrs using freshly isolated neutrophils perfused over endothelial monolayers for 5 mins by phase contrast microscopy. The following applies: Homo sapiens. The class given is functional, cell-based.

In series [11] the test system is HUVEC. Put plainly: Anti-inflammatory activity in HUVEC assessed as reduction in TNFalpha-stimulated neutrophil-HUVEC interactions by measuring decrease in mononuclear leukocyte to endothelial cells at 1 uM pretreated for 20 hrs before TNFalpha stimulation for 24 hrs using freshly isolated mononuclear leukocytes perfused over endothelial monolayers for 5 mins by phase contrast microscopy. Type of series: functional, cell-based. The following applies: Homo sapiens.

In series [12] the test system is HUVEC. Put plainly: Anti-inflammatory activity in HUVEC assessed as reduction in TNFalpha-stimulated neutrophil-HUVEC interactions by measuring decrease in mononuclear leukocyte to endothelial cells pretreated for 20 hrs before TNFalpha stimulation for 24 hrs using freshly isolated mononuclear leukocytes perfused over endothelial monolayers for 5 mins by phase contrast microscopy. Type of series: functional, cell-based. The note with it: Homo sapiens.

Series [13] relates to HUVEC. Nature of the series: Anti-inflammatory activity in HUVEC assessed as reduction in TNFalpha-stimulated neutrophil-HUVEC interactions by measuring decrease in mononuclear leukocyte to endothelial cells at 10 uM treated for 20 hrs post 48 hrs after control siRNA transfection followed by TNFalpha stimulation for 24 hrs using freshly isolated mononuclear leukocytes perfused over endothelial monolayers for 5 mins by phase contrast microscopy. Type of series: functional, cell-based. The note with it: Homo sapiens.

The test system of series [14] is HUVEC. Nature of the series: Anti-inflammatory activity in HUVEC assessed as reduction in TNFalpha-stimulated neutrophil-HUVEC interactions by measuring decrease in mononuclear leukocyte to endothelial cells at 10 uM treated for 20 hrs post 48 hrs after PPARalpha siRNA transfection followed by TNFalpha stimulation for 24 hrs using freshly isolated mononuclear leukocytes perfused over endothelial monolayers for 5 mins by phase contrast microscopy. The class given is functional, cell-based. The note with it: Homo sapiens.

The test system of series [15] is HUVEC. Nature of the series: Anti-inflammatory activity in HUVEC assessed as reduction in TNFalpha-stimulated neutrophil-HUVEC interactions by measuring decrease in mononuclear leukocyte to endothelial cells at 10 uM treated for 20 hrs post 48 hrs after PPARgamma siRNA transfection followed by TNFalpha stimulation for 24 hrs using freshly isolated mononuclear leukocytes perfused over endothelial monolayers for 5 mins by phase contrast microscopy. Type of series: functional, cell-based. The following applies: Homo sapiens.

The test system of series [16] is HUVEC. Nature of the series: Anti-inflammatory activity in HUVEC assessed as reduction in TNFalpha-stimulated neutrophil-HUVEC interactions by measuring decrease in mononuclear leukocyte to endothelial cells at 10 uM treated for 20 hrs post 48 hrs after RXRalpha siRNA transfection followed by TNFalpha stimulation for 24 hrs using freshly isolated mononuclear leukocytes perfused over endothelial monolayers for 5 mins by phase contrast microscopy. The note with it: Homo sapiens. The class given is functional, cell-based.

The target of series [17] is RXR alpha/PPAR gamma (Homo sapiens) (UniProt P37231+P19793). Nature of the series: Induction of RXRalpha/PPARgamma interaction in HUVEC at 10 uM pretreated for 20 hrs before TNFalpha stimulation by immunoprecipitation and Western blotting analysis. The class given is cell-based.
The test system of series [18] is HUVEC. Put plainly: Anti-inflammatory activity in HUVEC assessed as reduction in TNFalpha-stimulated neutrophil-HUVEC interactions by measuring decrease in mononuclear leukocyte to endothelial cells at 10 uM pretreated for 20 hrs before TNFalpha stimulation for 24 hrs using freshly isolated mononuclear leukocytes perfused over endothelial monolayers for 5 mins in presence of PPARgamma antagonist GW9662 by phase contrast microscopy. Type of series: functional, cell-based. The following applies: Homo sapiens.

Series [19] concerns HUVEC. Put plainly: Anti-inflammatory activity in HUVEC assessed as reduction in TNFalpha-stimulated neutrophil-HUVEC interactions by measuring decrease in mononuclear leukocyte to endothelial cells at 10 uM pretreated for 20 hrs before TNFalpha stimulation for 24 hrs using freshly isolated mononuclear leukocytes perfused over endothelial monolayers for 5 mins in presence of PPARalpha antagonist GW6471 by phase contrast microscopy. Type of series: functional, cell-based. The note with it: Homo sapiens.

In series [20] the target is T4, Peroxisome proliferator-activated receptor gamma (Homo sapiens) (UniProt P37231).
T4 sequence (whole entry): T3 sequence (P37231 whole entry)
The note with it: at 10 µM.

Series [21] has as its system Neutrophil. Put plainly: Cytotoxicity against human neutrophils assessed as induction of cell damage at 30 uM incubated for 24 hrs by MTT assay. The class given is cell-based.
Series [22] concerns HUVEC. Put plainly: Cytotoxicity against HUVEC assessed as induction of cell damage at 30 uM incubated for 24 hrs by MTT assay. Type of series: cell-based. The note with it: human.
In series [23] the test system is HUVEC. Put plainly: Anti-inflammatory activity in HUVEC assessed as reduction in TNFalpha-stimulated neutrophil-HUVEC interactions by measuring decrease in mononuclear leukocyte to endothelial cells at 1 uM treated for 20 hrs post 48 hrs after control siRNA transfection followed by TNFalpha stimulation for 24 hrs using freshly isolated mononuclear leukocytes perfused over endothelial monolayers for 5 mins by phase contrast microscopy. The class given is functional, cell-based. The note with it: Homo sapiens.

For series [24], the system named is HUVEC. Nature of the series: Anti-inflammatory activity in HUVEC assessed as reduction in TNFalpha-stimulated neutrophil-HUVEC interactions by measuring decrease in mononuclear leukocyte to endothelial cells at 1 uM treated for 28 hrs post 48 hrs after PPARalpha siRNA transfection followed by TNFalpha stimulation for 24 hrs using freshly isolated mononuclear leukocytes perfused over endothelial monolayers for 5 mins by phase contrast microscopy. Type of series: functional, cell-based. The note with it: Homo sapiens.

Consider `C/C(=C\CC[C@]1(C)CCc2cc(O)cc(C)c2O1)CC/C=C(\C)C(=O)O`, for which the Efficacy in series [1] was found to be 107%; in series [20], 95%. Besides, the EC50 in series [2] (read-out: EC50) amounted to 184 nM; in series [3] (read-out: EC50), 84 nM. The Activity entry in [4], in [5], in [8] and in [9] was “Non-Toxic” in each case. In addition, the viability at 24 h, 30 µM came out at 89.2% in [6] and 73.4% in [7]. Also, the outcome in series [10], in series [15], in series [16] and in [18] was inactive. Moreover, the result in series [11], in series [13], in [14], in series [17] and in [19] was Active. Further, in series [12], the IC50 was 4.9 µM.

Consider `CCCOc1cc(C)c2c(c1)CC[C@@](C)(CC/C=C(\C)CC/C=C(\C)C(=O)O)O2`, for which the Efficacy in series [1] came to 191%; in series [20], 88%. The EC50 in series [2] (read-out: EC50) was 1000 nM; in [3] (read-out: EC50), 1690 nM.

On to `COC(=O)C(OC(=O)/C(C)=C/CC/C(C)=C/CC[C@]1(C)CCc2cc(OC)cc(C)c2O1)C(=O)OC`, for which the Efficacy stood at 76% in series [1] and 37% in series [20]. Besides, in series [2] (read-out: EC50), the EC50 worked out at 1620 nM.

Regarding `COC(=O)COC(=O)/C(C)=C/CC/C(C)=C/CC[C@]1(C)CCc2cc(OC)cc(C)c2O1`, the Efficacy was 39% in series [1] and 24% in [20].

`COc1cc(C)c2c(c1)CC[C@@](C)(CC/C=C(\C)CC/C=C(\C)C(=O)O)O2`: the Efficacy was 82% in series [1] and 55% in series [20]. In addition, the EC50 in [2] (read-out: EC50) and in series [3] (read-out: EC50) was 1000 nM throughout. Besides, the Activity entry in series [21] and in series [22] was “Toxic” in each case.

As to `Cc1cc(SCc2sc(-c3ccc(C(F)(F)F)cc3)nc2C)ccc1OCC(=O)O`, the Efficacy entry in series [1] is “inactive”.

Take `CCCOC(=O)/C(C)=C/CC/C(C)=C/CC[C@]1(C)CCc2cc(O)cc(C)c2O1`: the Efficacy came to 49% in [1] and 86% in series [20]. The EC50 in series [3] (read-out: EC50) was 991 nM.

In the case of `CN(CCOc1ccc(CC2SC(=O)NC2=O)cc1)c1ccccn1` (stereo unspecified) [ROSIGLITAZONE], the Efficacy result in [1] was “inactive”. In addition, in series [2], the EC50 entry is recorded as “Not Active”. Further, the Activity result in [4] and in series [5] was “Toxic” in each case. Besides, the outcome in [10] was inactive. Also, the result in series [11], in series [23] and in series [24] was Active. Also, the inhibition result in series [12] is “Dose-dependent effect”.

As for `C/C(=C\CC[C@]1(C)CCc2cc(OCc3ccccc3)cc(C)c2O1)CC/C=C(\C)C(=O)OCc1ccccc1`, in series [1], the Efficacy turned out to be 28%.

With `CC1=C(/C=C/C(C)=C\C=C\C(C)=C\C(=O)O)C(C)(C)CCC1`, in series [1], the Efficacy result was “inactive”.

With `Cc1cccc(Nc2cc(Cl)nc(SCC(=O)O)n2)c1C` [PIRINIXIC ACID], in [3], the EC50 result is given as “Not Active”. In addition, in [10], the outcome was inactive.

In the case of `C/C(=C\CC[C@]1(C)CCc2cc(OCC(N)=O)cc(C)c2O1)CC/C=C(\C)C(=O)OCc1ccccc1`, the Efficacy in series [1] came to 18%.

`COC(=O)/C(C)=C/CC/C(C)=C/CC[C@]1(C)CCc2cc(O)cc(C)c2O1`: the Efficacy in [1] was 27%; in series [20] it was 35%.

For `COC(=O)COC(=O)/C(C)=C/CC/C(C)=C/CC[C@]1(C)CCc2cc(OC(=O)c3ccccc3)cc(C)c2O1`, the Efficacy in series [1] worked out at 14%.
